# Entries after “also recorded” stand apart in the source; their conditions may differ. Read-outs that look alike come from different tables or passages of the source.
# Assays:
# [1] = tested on: acutely dissociated and purified rat OPCs; test: Acute OL differentiation assay (MBP expression/cell, immunofluorescent image quantification); assay type: cell-based; conditions: for hit in OL differentiation assay, MRF-TMC: ● = confirmed hit in this paper's assay; for EC50: average EC50 for induction of OL differentiation from independent biological replicates, eight concentrations
# Procedure: In order to identify compounds with the potential to promote OL differentiation in vivo and thereby enhance remyelination, we first wanted to establish an in vitro assay system that would closely mimic conditions in vivo. To do this, we started by using OPCs acutely isolated from postnatal day 6–7 (P6–7) rat brains by O4 immunopanning. […] OPCs were plated directly onto a biological substrate (PDL/laminin) in 96-well view plates at moderate density to allow for sufficient room to expand processes during differentiation. We plated cells in serum-free medium lacking OPC mitogens (no PDGF or FGF) to allow a basal level of OL differentiation to commence, and as a positive control added thyroid hormone (T3, 40 ng/ml) to accelerate differentiation (Fig. 1, flow scheme).
# Fig. 1 Flow scheme of the acute OL differentiation assay. a Purified oligodendrocyte precursor cells (OPCs) were cultured from P7 rat cortex and plated into PDL/laminin pre-coated 96-well plates. b One hour later test compounds were added. c OPC cultures with compound were maintained in culture for an additional 4 days. d On the 5th day with compound, cells were fixed and immunostained with anti-MBP antibodies and DAPI. e Images were acquired with automated fluorescence microscopy and scored phenotypically for OL differentiation (see “Methods” section)
# To quantify the extent of OL differentiation occurring in treatment conditions, we measured the overall amount of MBP expression/cell (see “Methods” section). Figure 2a depicts the mask created over MBP staining under which the MBP expression was quantified. […]
# All animal work was carried out in strict accordance with the recommendations in the Guide for the Care and Use of Laboratory Animals of the National Institutes of Health. The protocol was approved by the Institutional Use and Care and Use Committee at the Molecular Medicine Research Institute (Sunnyvale, CA). Animals used for OPC isolation in these studies were euthanized by decapitation. OPCs from brains of P6-P7 Sprague–Dawley rat pups (Charles River, Wilmington, MA, USA) were enriched by immunopanning as previously described (Dugas et al. 2006). Briefly, single cell suspensions were obtained from papain-digested neonatal brains and depleted of mature glial cells by successive panning with RAN-2- and GalC-coated plates, followed by enrichment for OPCs using O4-coated plates. OPCs were plated in differentiation media (DMEM, 100 U/ml Penicillin/100 µg/ml streptomycin, 2 mM L-glutamine, 1 mM Na pyruvate, 5 µg/ml insulin, 5 µg/ml N-acetyl-L-cysteine, 1× trace elements B,10 ng/ml d-Biotin, 100 µg/ml BSA, 100 µg/ml apo-transferrin, 16 µg/ml putrescine, 60 ng/ml progesterone, 40 ng/ml sodium selenite 5 ng/ml forskolin, 10 ng/ml CNTF, 1 ng/ml NT-3).
# Acutely enriched OPCs were plated in differentiation media at 5000 cells/well into PDL/laminin coated 96-well view plates and centrifuged at 200×g to facilitate cell attachment, survival, and even distribution of OPCs. OPCs were pre-incubated for 1–2 h at 37 °C in 10 % CO2, followed by the addition of test compounds in quadruplicate. Controls were added in eight replicate wells, negative control = 0.1 % DMSO; positive control = 40 ng/ml T3. The day of OPC plating was considered DIV0. On DIV4, cells were fixed, immunostained for myelin basic protein (MBP) expression, imaged and quantified as described below.
# [2] = tested on: expanded OPCs; test: cells
# Procedure: Having established a consistent assay for measuring OL differentiation in vitro, the next step was to utilize this assay to assess the ability of a wide array of compounds to promote OL differentiation. Prior to library screening, we first established the maximum non-toxic dose of each compound in the library. […] Therefore, we added each compound in the NIH clinical collection (NCC) library to OPCs at 10, 1, and 0.1 µM concentrations. Three days later, we assessed viability of the treated cells by measuring AlamarBlue fluorescence, a measure of cell viability (see “Methods” section). […] Appropriately, we established three sets of screening concentrations for library compounds: non-toxic compounds were tested at 10 and 2 µM, slightly toxic compounds (only toxic at 10 µM) were tested at 2 and 0.4 µM, and very toxic compounds were tested at 0.4 and 0.08 µM.
# OPCs were expanded in vitro by seeding into PDL-coated tissue culture flasks at 1000–2000 cells/cm^2 in differentiation media supplemented with 10 ng/ml PDGF-AA. Proliferating OPCs were fed every 2–3 days and supplemented with 2–3× concentration of PDGF as needed to prevent OPC differentiation. After 6–7 days of proliferation, OPCs were harvested by trypsinization, plated into PDL-coated 96-well Falcon plates and centrifuged at 200×g to facilitate cell attachment, survival, and even distribution of cells. Expanded OPCs were seeded in differentiation media at 10,000 cells/well and incubated for 2 h at 37 °C, 10 % CO2 prior to addition of compounds. The NCC library was diluted and added to cells at 10, 1, and 0.1 µM; each concentration was tested in quadruplicate. As a positive control for the induction of toxicity, 5 ng/ml tunicamycin was added to 8 wells in each plate. Three days later, a 1:10 dilution of alamarBlue® (AB) was added to each well and cells were incubated 4 h at 37 °C, 10 % CO2. AB fluorescence was measured using a PerkinElmer Victor II fluorescence microplate reader (PerkinElmer, Waltham, MA) with 560 nm excitation/590 nm emission filters. For library screening, the highest concentration of each compound was adjusted to a minimally toxic concentration based on this toxicity data. Compounds were additionally tested at a second concentration that was 1/5th of the top concentration. The final concentration of DMSO in each well was 0.1 %.
# [3] = Rattus norvegicus, 2 uM test compound, relative to quetiapine, sheet "All OLga data", read-out: OL differentiation, 2 uM (% Quet)
# [4] = Rattus norvegicus, 10 uM test compound, relative to quetiapine, sheet "All OLga data", read-out: OL differentiation, 10 uM (% Quet)
compound,measurement,setting,value
O=c1[nH]cc(F)c(=O)[nH]1 [5-Fluorouracil],activation at 0.08 µM,"[1]; Rattus norvegicus, test compound at 0.08 uM, NCC library screen, sheet ""All OLga data"", relative to quetiapine, read-out: 0.08 uM (% Quet)",-10.8%
same,activation at 0.4 µM,"[1]; Rattus norvegicus, test compound at 0.4 uM, NCC library screen, sheet ""All OLga data"", relative to quetiapine, read-out: 0.4 uM (% Quet)",-21.3%
same,0.1 µM (% DMSO),"[2]; alamarBlue viability of expanded OPCs, compound at 0.1 µM, relative to DMSO control",80.9 % DMSO
same,1 µM (% DMSO),"[2]; alamarBlue viability of expanded OPCs, compound at 1 µM, relative to DMSO control",26.6 % DMSO
same,10 µM (% DMSO),"[2]; alamarBlue viability of expanded OPCs, compound at 10 µM, relative to DMSO control",12.2 % DMSO
COc1ccc2[nH]cc(CCN)c2c1 [5-Methoxytryptamine],activation at 2 µM,"[1]; Rattus norvegicus, test compound at 2 uM, NCC library screen, sheet ""All OLga data"", relative to quetiapine, read-out: 2 uM (% Quet)",2.6%
same,activation at 10 µM,"[1]; Rattus norvegicus, test compound at 10 uM, NCC library screen, sheet ""All OLga data"", relative to quetiapine, read-out: 10 uM (% Quet)",4.2%
same,viability at 0.1 µM,"[2]; Rattus norvegicus, 72 h, read-out: 0.1 µM (% DMSO), alamarBlue viability, NCC library compound at 0.1 µM, sheet ""All Tox data""",82.9%
same,viability at 1 µM,"[2]; Rattus norvegicus, 72 h, read-out: 1 µM (% DMSO), alamarBlue viability, NCC library compound at 1 µM, sheet ""All Tox data""",83.6%
same,viability at 10 µM,"[2]; Rattus norvegicus, 72 h, read-out: 10 µM (% DMSO), alamarBlue viability, NCC library compound at 10 µM, sheet ""All Tox data""",78.8%
"COc1cc2c(cc1OC)C(=O)C(CC1CCN(Cc3ccccc3)CC1)C2 (centres unmarked) [Donepezil, reference compound]",activation at 2 µM,[1]; [3],94.8%
same,activation at 10 µM,[1]; [4],75.6%
same,"hit in OL differentiation assay, MRF-TMC",[1],●
"CN(C)CCC[C@@]1(c2ccc(F)cc2)OCc2cc(C#N)ccc21 [Escitalopram, reference compound]",EC50,[1]; Rattus norvegicus,1.3 µM
same,"hit in OL differentiation assay, MRF-TMC",[1],●
COc1ccc(CC(C)NCC(O)c2ccc(O)c(NC=O)c2)cc1 (centres unmarked) [Formoterol],activation at 2 µM,"[1]; Rattus norvegicus, read-out: 2 uM (% Quet)",4.6%
same,activation at 10 µM,"[1]; Rattus norvegicus, read-out: 10 uM (% Quet)",12.1%
"CC1CCN(CCCC(=O)c2ccc(F)cc2)CC1 [Metylperon, reference compound]",EC50,[1]; Rattus norvegicus,7.3 µM
same,"hit in OL differentiation assay, MRF-TMC",[1],●
COc1c(N2C[C@@H]3CCCN[C@@H]3C2)c(F)cc2c(=O)c(C(=O)O)cn(C3CC3)c12 [Moxifloxacin],activation at 2 µM,[1]; [3],20.2%
same,activation at 10 µM,[1]; [4],16.3%
COC(=O)C1=C(C)NC(C)=C(C(=O)OC)C1c1ccccc1[N+](=O)[O-] [Nifedipine],activation at 0.4 µM,"[1]; Rattus norvegicus, 0.4 uM test compound, relative to quetiapine, sheet ""All OLga data"", read-out: OL differentiation, 0.4 uM (% Quet)",19.7%
same,activation at 2 µM,[1]; [3],-8.9%
Nc1nc2ccc(OC(F)(F)F)cc2s1 [Riluzole],activation at 2 µM,[1]; [3],-11.1%
same,activation at 10 µM,[1]; [4],32.6%
"N[C@@H](Cc1cc(I)c(Oc2ccc(O)c(I)c2)c(I)c1)C(=O)O [T3, triiodothyronine, reference compound]",promotion of OL differentiation (in words),[1]; MBP expression versus 0.1 % DMSO negative control,able to promote OL differentiation at one or both concentrations tested; also recorded: consistently and significantly promote OL differentiation

# Reference: publication PMC5011342, “A high throughput drug screening assay to identify compounds that promote oligodendrocyte differentiation using acutely dissociated and purified oligodendrocyte precursor cells” (BMC Research Notes, 2016)
